Laboratory results taken from US12590091B2, “1H-pyrrolo[3,2-C]pyridine and 1H-pyrrolo[2,3-C]pyridine derivatives as TLR9 inhibitors for the treatment of fibrosis” (BRISTOL-MYERS SQUIBB COMPANY, priority 2020, dated 2026).

The compounds below were run against T1, human TLR7 (Homo sapiens, UniProt Q9NYK1) (assay: TLR7 inhibition reporter assay (HEK-Blue cells, SEAP reporter)). Details: HEK-Blue cells overexpressing human TLR7, stimulated with gardiquimod 7.5 μM, 22 hour incubation.
T1 construct: host or cells: HEK-Blue cells
T1 sequence (Q9NYK1 27-1049): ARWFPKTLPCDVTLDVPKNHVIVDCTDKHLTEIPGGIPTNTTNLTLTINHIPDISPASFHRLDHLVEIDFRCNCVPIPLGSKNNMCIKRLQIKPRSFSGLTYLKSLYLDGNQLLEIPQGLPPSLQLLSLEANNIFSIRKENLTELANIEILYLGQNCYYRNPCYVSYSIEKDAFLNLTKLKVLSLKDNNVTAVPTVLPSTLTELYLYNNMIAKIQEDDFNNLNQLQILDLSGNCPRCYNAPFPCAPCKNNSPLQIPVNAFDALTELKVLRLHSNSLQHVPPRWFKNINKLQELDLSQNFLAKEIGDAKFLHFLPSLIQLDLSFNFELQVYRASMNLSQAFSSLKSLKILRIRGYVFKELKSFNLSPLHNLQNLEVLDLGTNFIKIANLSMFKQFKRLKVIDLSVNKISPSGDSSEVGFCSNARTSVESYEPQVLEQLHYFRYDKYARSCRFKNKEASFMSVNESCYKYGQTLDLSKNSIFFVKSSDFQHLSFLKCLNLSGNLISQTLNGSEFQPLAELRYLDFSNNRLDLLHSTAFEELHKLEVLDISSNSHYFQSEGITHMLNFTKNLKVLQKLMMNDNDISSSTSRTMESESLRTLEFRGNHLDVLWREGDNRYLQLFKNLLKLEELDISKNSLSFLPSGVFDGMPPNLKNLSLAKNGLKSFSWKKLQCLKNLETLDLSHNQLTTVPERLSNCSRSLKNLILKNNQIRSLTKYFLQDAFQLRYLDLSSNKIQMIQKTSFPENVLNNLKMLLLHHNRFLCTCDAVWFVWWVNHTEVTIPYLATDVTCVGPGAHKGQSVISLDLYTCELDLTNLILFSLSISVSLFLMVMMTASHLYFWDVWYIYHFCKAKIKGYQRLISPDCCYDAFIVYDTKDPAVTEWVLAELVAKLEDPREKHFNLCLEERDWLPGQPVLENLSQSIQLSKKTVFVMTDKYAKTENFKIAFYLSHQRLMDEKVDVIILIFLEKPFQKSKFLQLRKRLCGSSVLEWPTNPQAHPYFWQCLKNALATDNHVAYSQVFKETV
Format: cell-based
Protocol: TLR7/8/9 Inhibition Reporter Assays
HEK-Blue™-cells (Invivogen) overexpressing human TLR7, TLR8 or TLR9 receptors were used for screening inhibitors of these receptors using an inducible SEAP (secreted embryonic alkaline phosphatase) reporter gene under the control of the IFN-β minimal promoter fused to five NF-κB and AP-1-binding sites. Briefly, cells are seeded into Greiner 384 well plates (15000 cells per well for TLR7, 20,000 for TLR8 and 25,000 for TLR9) and then treated with test compounds in DMSO to yield a final dose response concentration range of 0.05 nM-50 μM. After a 30 minute compound pre-treatment at room temperature, the cells are then stimulated with a TLR7 ligand (gardiquimod at a final concentration of 7.5 μM), TLR8 ligand (R848 at a final concentration of 15.9 μM) or TLR9 ligand (ODN2006 at a final concentration of 5 nM) to activate NF-κB and AP-1 which induce the production of SEAP. After a 22 hour incubation at 37° C., 5% CO2, SEAP levels are determined with the addition of HEK-Blue™ Detection reagent (Invivogen), a cell culture medium that allows for detection of SEAP, according to manufacturer's specifications. The percent inhibition is determined as the % reduction in the HEK-Blue signal present in wells treated with agonist plus DMSO alone compared to wells treated with a known inhibitor.

IC50 [µM]	Structure (SMILES)
1.7	COc1ccc(-c2[nH]c3cnc(-c4ccc(N5CCN(C(C)C)CC5)cc4)cc3c2C)cc1OC [Example 1, 2-(3,4-Dimethoxyphenyl)-5-(4-(4-isopropylpiperazin-1-yl)phenyl)-3-methyl-1H-pyrrolo[2,3-c]pyridine]
2.7	COc1ccc(-c2c(C)[nH]c3cnc(-c4ccc(N5CCN(C(C)C)CC5)cc4)cc23)cc1OC [Example 2, 3-(3,4-dimethoxyphenyl)-5-(4-(4-isopropylpiperazin-1-yl)phenyl)-2-methyl-1H-pyrrolo[2,3-c]pyridine]
8.2	COc1ccc(-c2c(C)[nH]c3cnc(C4CCN(C(=O)C5CCN(C6CC6)CC5)CC4)cc23)cc1OC [Example 5, (1-Cyclopropylpiperidin-4-yl)(4-(3-(3,4-dimethoxyphenyl)-2-methyl-1H-pyrrolo[2,3-c]pyridin-5-yl)piperidin-1-yl)methanone]
8	COc1ccc(-c2c(C)[nH]c3cnc(C4CCN(c5cc(C)nc(C)c5)CC4)cc23)cc1OC [Example 6, 3-(3,4-Dimethoxyphenyl)-5-(1-(2,6-dimethylpyridin-4-yl)piperidin-4-yl)-2-methyl-1H-pyrrolo[2,3-c]pyridine]
2.9	COc1ccc(-c2cc3cnc(-c4ccc(N5CCN(CC6CC6)CC5)cc4)cc3n2C)cc1OC [Example 9, 6-(4-(4-(Cyclopropylmethyl)piperazin-1-yl)phenyl)-2-(3,4-dimethoxyphenyl)-1-methyl-1H-pyrrolo[3,2-c]pyridine]
5.7	COc1ccc(-c2c(C)[nH]c3cnc(C4CCN(C(=O)CN5CCCCC5)CC4)cc23)cc1OC [Example 16, 1-(4-(3-(3,4-dimethoxyphenyl)-2-methyl-1H-pyrrolo[2,3-c]pyridin-5-yl)piperidin-1-yl)-2-(piperidin-1-yl)ethan-1-one]
2.3	COc1ccc(-c2c(C)n(C)c3cnc(C4CCN(C5CCN(CC(C)C)CC5)CC4)cc23)cc1OC [Example 17, 3-(3,4-dimethoxyphenyl)-5-(1′-isobutyl-[1,4′-bipiperidin]-4-yl)-1,2-dimethyl-1H-pyrrolo[2,3-c]pyridine]
9.7	COc1ccc(-c2c(C)[nH]c3cnc(C4CCN(C(=O)CN(C)C)CC4)cc23)cc1OC [Example 22, 1-(4-(3-(3,4-dimethoxyphenyl)-2-methyl-1H-pyrrolo[2,3-c]pyridin-5-yl)piperidin-1-yl)-2-(dimethylamino)ethan-1-one]
> 50	COc1ccc(-c2c(C)[nH]c3cnc(C4CCN(C(=O)CCN5CCCC5)CC4)cc23)cc1OC [Example 23, 1-(4-(3-(3,4-dimethoxyphenyl)-2-methyl-1H-pyrrolo[2,3-c]pyridin-5-yl)piperidin-1-yl)-3-(pyrrolidin-1-yl)propan-1-one]
3.2	COc1ccc(-c2cc3cnc(-c4ccc(N5CCN(C(C)C)CC5)cc4)cc3n2C)cc1OC [Example 24, 2-(3,4-dimethoxyphenyl)-6-(4-(4-isopropylpiperazin-1-yl)phenyl)-1-methyl-1H-pyrrolo[3,2-c]pyridine]

Continued, compound first:

Structure (SMILES)	IC50 [µM]
COc1ccc(-c2c(C)n(C)c3cnc(-c4ccc(N5CCN(CC(C)(C)O)CC5)cc4)cc23)cc1OC [Example 3, 1-(4-(4-(3-(3,4-Dimethoxyphenyl)-1,2-dimethyl-1H-pyrrolo[2,3-c]pyridin-5-yl)phenyl)piperazin-1-yl)-2-methylpropan-2-ol]	3.3
COc1ccc(-c2c(C)[nH]c3cnc(C4CCN(C5CCN(C(=O)OCc6ccccc6)CC5)CC4)cc23)cc1OC [Example 4, Benzyl 4-(3-(3,4-dimethoxyphenyl)-2-methyl-1H-pyrrolo[2,3-c]pyridin-5-yl)-[1,4′-bipiperidine]-1′-carboxylate]	9.5
COc1ccc(-c2cc3cnc(-c4ccc(N5CCN(C6CCC6)CC5)cc4)cc3n2C)cc1OC [Example 10, 6-(4-(4-Cyclobutylpiperazin-1-yl)phenyl)-2-(3,4-dimethoxyphenyl)-1-methyl-1H-pyrrolo[3,2-c]pyridine]	13.8
COc1ccc(-c2c(C)c3cc(C4CCN(C5CCN(CC(C)C)CC5)CC4)ncc3n2C)cc1OC [Example 13, 2-(3,4-dimethoxyphenyl)-5-(1′-isobutyl-[1,4′-bipiperidin]-4-yl)-1,3-dimethyl-1H-pyrrolo[2,3-c]pyridine]	17.3
COc1ccc(-c2c(C)[nH]c3cnc(C4CCN(C5CCN(C(=O)c6ccccc6)CC5)CC4)cc23)cc1OC [Example 14, (4-(3-(3,4-dimethoxyphenyl)-2-methyl-1H-pyrrolo[2,3-c]pyridin-5-yl)-[1,4′-bipiperidin]-1′-yl) (phenyl)methanone]	8.2
COc1ccc(-c2c(C)[nH]c3cnc(C4CCN(C5CCN(C(=O)C(C)C)CC5)CC4)cc23)cc1OC [Example 15, 1-(4-(3-(3,4-dimethoxyphenyl)-2-methyl-1H-pyrrolo[2,3-c]pyridin-5-yl)-[1,4′-bipiperidin]-1′-yl)-2-methylpropan-1-one]	14
COc1ccc(-c2c(C)n(C)c3cnc(C4CCN(C5CCN(C(=O)C(C)C)CC5)CC4)cc23)cc1OC [Example 18, 1-(4-(3-(3,4-dimethoxyphenyl)-1,2-dimethyl-1H-pyrrolo[2,3-c]pyridin-5-yl)-[1,4′-bipiperidin]-1′-yl)-2-methylpropan-1-one]	13.6
COc1ccc(-c2c(C)n(C)c3cnc(C4CCN(C5CCN(C(=O)c6ccccc6)CC5)CC4)cc23)cc1OC [Example 19, (4-(3-(3,4-dimethoxyphenyl)-1,2-dimethyl-1H-pyrrolo[2,3-c]pyridin-5-yl)-[1,4′-bipiperidin]-1′-yl)(phenyl)methanone]	5.2
CCOC(=O)N1CCC(N2CCC(c3cc4c(-c5ccc(OC)c(OC)c5)c(C)n(C)c4cn3)CC2)CC1 [Example 20, ethyl 4-(3-(3,4-dimethoxyphenyl)-1,2-dimethyl-1H-pyrrolo[2,3-c]pyridin-5-yl)-[1,4′-bipiperidine]-1′-carboxylate]	9.2
COc1ccc(-c2c(C)[nH]c3cnc(C4CCN(C(=O)CN5CCCC5)CC4)cc23)cc1OC [Example 21, 1-(4-(3-(3,4-dimethoxyphenyl)-2-methyl-1H-pyrrolo[2,3-c]pyridin-5-yl)piperidin-1-yl)-2-(pyrrolidin-1-yl)ethan-1-one]	26
COc1ccc(-c2cc3cnc(C4CCN(C(=O)CN5CCCCC5)CC4)cc3n2C)cc1OC [Example 25, 1-(4-(2-(3,4-dimethoxyphenyl)-1-methyl-1H-pyrrolo[3,2-c]pyridin-6-yl)piperidin-1-yl)-2-(piperidin-1-yl)ethan-1-one]	4.5
COc1ccc(-c2cc3cnc(C4CCN(C5CCN(C(=O)c6ccccc6)CC5)CC4)cc3n2C)cc1OC [Example 26, (4-(2-(3,4-dimethoxyphenyl)-1-methyl-1H-pyrrolo[3,2-c]pyridin-6-yl)-[1,4′-bipiperidin]-1′-yl)(phenyl)methanone]	7.3
COc1ccc(-c2cc3cnc(-c4ccc(N5CCN(C)CC5)cc4)cc3n2C)cc1OC [Example 27, 2-(3,4-dimethoxyphenyl)-1-methyl-6-(4-(4-methylpiperazin-1-yl)phenyl)-1H-pyrrolo[3,2-c]pyridine]	2.6
COc1ccc(-c2cc3cnc(C4CCN(Cc5ccc(C(F)(F)F)nc5)CC4)cc3n2C)cc1OC [Example 28, 2-(3,4-dimethoxyphenyl)-1-methyl-6-(1-((6-(trifluoromethyl)pyridin-3-yl)methyl)piperidin-4-yl)-1H-pyrrolo[3,2-c]pyridine]	> 50
COc1ccc(-c2cc3cnc(-c4ccc(N5CCN(C(=O)c6ccccc6)CC5)cc4)cc3n2C)cc1OC [Example 29, (4-(4-(2-(3,4-dimethoxyphenyl)-1-methyl-1H-pyrrolo[3,2-c]pyridin-6-yl)phenyl)piperazin-1-yl)(phenyl)methanone]	14.4
